The values that follow come from a melting point compilation (Tetko et al.; mined from patent text by program, amines drawn as free bases though some values may be those of a salt).

Molecules are shown by their SMILES. Residues, ends and D or L forms follow the SMILES beside them. *: point of attachment. Tos = Cc1ccc(S(=O)(=O)*)cc1

What is called melting point is the temperature of the solid-liquid transition.

With `CC(C)c1cccc(C(C)C)c1NC(=O)NC(c1ccccc1)c1ccccc1`, the melting point lay within 245 to 246 °C.
Under `CCCCn1c(=O)[nH]c2nc3ccccc3n2c1=O` stands 275 to 280 °C; under `O=[N+]([O-])C(=Cc1ccco1)C1=NCCN1CC1CCOC1` (centres undefined), 115 to 117 °C; under `COc1cc2c(=O)c3c(Cl)ccc([N+](=O)[O-])c3[nH]c2cc1Cl`, 284 to 285 °C.
Under `NCCNc1nc(N)nc(-c2cc(Cl)ccc2Cl)n1` stands 152 to 153 °C; under `CC1=C(C#N)C(c2cccc([N+](=O)[O-])c2)n2ccnc2N1` (centres undefined), 278 to 280 °C; under `CC(=O)NC[C@H]1CN(c2ccc(N3CCC(F)(CO)CC3)c(F)c2)C(=O)O1`, 154 to 156 °C.
Under `Cn1nc(-c2c(Cl)cccc2Cl)nc1Cc1ccc(Cl)cc1` stands 112 to 115 °C; under `Cc1nc2c(o1)CCc1ccccc1C2=O`, 174 to 176 °C.
In turn, `C=C(C)c1ccc(C(=O)C2=C(O)C(=O)N(c3ccc(C)nn3)C2c2ccc(OC(F)(F)F)cc2)cc1` (centres undefined) had a melting point of 253 °C.
In the case of `NC(=O)CNC(=O)c1ccnc(-c2cccc3sc(Cc4cccc(C(F)(F)F)c4)cc23)c1`, the melting point was in the range of 49 to 50 °C.
As for `CN1CCN(c2ccc(O)c3c2C[C@H](NC(=O)c2ccc(N4CCOCC4)cc2)CC3)CC1`, the melting point was 84 to 88 °C.
Under `CSc1cc(C(C)(C)C)nn1C(=O)N(C)C` stands 56 to 58 °C; under `COc1nc(C)nc(NC(=O)NS(=O)(=O)OCC(Cl)(Cl)Cl)n1`, 128 °C; under `CCCc1c(OCCCCCOc2ccc3cc(OCC(=O)OCC)ccc3c2CCC(=O)OCC)ccc2c1OCCC2=O`, 100 to 102 °C.
`CCOC(=O)c1cn(NCC=O)c2nc(C)ccc2c1=O` came in with a melting point of 210 to 212 °C.
Under `CCCCCCCC(=O)OCc1ccccc1-c1nc(-c2cccc(OC)c2)n[nH]1` stands 61 °C; under `CCN1CNC(=O)NC1=O`, 220 to 224 °C; under `CN1CCC=C(c2cc3ccccc3c(=O)[nH]2)C1`, 214 to 216 °C.
Under `ON=C1CC(c2ccccc2)Cc2ccccc21` (centres undefined) stands 195 °C.
Next, `O=C1c2ccccc2CN1CC1CCN(CCc2c[nH]c3ccccc23)CC1`: 225 to 230 °C.
Turning to `COc1ccc2cccc(Br)c2c1`, the melting point was in the range of 54 to 58 °C.
For `C=CCN1CC(c2ccc(N)cc2F)CCS1(=O)=O` (centres undefined), the melting point is 96 °C.
Under `COc1ccc(-c2csc3ccc([N+](=O)[O-])c(C(=O)N4CCOCC4)c23)cc1OC` stands 144 °C.
Compound `Nc1cccc(C(=O)N2N=C(C(F)(F)F)CC2(O)c2cc(F)c(Cl)cc2F)c1` (centres undefined) registered a melting point of 123 to 124 °C.
Under `CN1C(=O)CC[C@]2(C)c3ccc(-c4ccc5c(c4)OCO5)cc3CC[C@@H]12` stands 146 to 152 °C; under `CC(C)(C)OC(=O)N1CC[C@@H](C(=O)N[C@@H](CC(=O)OCc2ccccc2)C(=O)N[C@@H](Cc2ccccc2)C(=O)OCc2ccccc2)C1`, 84 to 85 °C.
Under `CCOC(=O)/C=C/C=C(c1ccc(Cl)cc1)c1ccc(Cl)cc1` stands 98 to 100 °C; under `CSC(=S)N1CCN(Cc2cc(OC(C)=O)ccc2O)CC1`, 124 °C.
Next, `COC(=O)C(C)c1ccc2cc(OCc3ccc4ccccc4n3)ccc2c1` (centres undefined): 91 to 93 °C; `CCOC(=O)C1=CC(C(=O)c2ccccc2O)=CN2CCc3c([nH]c4ccccc34)C12C(=O)OCC` (centres undefined): 209 °C.
`Cc1ccccc1Oc1cccc(C(N)C(=O)O)c1O` (centres undefined) gave a melting point of 170 to 173 °C.
On to `CCCOc1c(OC)cc(C=O)cc1SC`, for which the melting point is 64 to 66 °C.
For the compound `c1ncn(Cc2nc(-c3ccc4c(c3)OCO4)c3cc4c(cc3n2)OCO4)n1`, the melting point lay in the range of 195 to 198 °C.
Under `CN1C(=O)N(c2c(Cl)cccc2Cl)Cc2cnc(NCCc3ccc(N)cc3)nc21` stands 174 to 175 °C; under `CC1=C(C)C(O)N(c2nc3ccc(OC(F)(F)F)cc3s2)C1=O` (centres undefined), 228 to 231 °C; under `CCC(C(C)=CC(CNC(=O)c1nc[nH]c1C)=NO)[N+](=O)[O-]` (centres undefined), 133 to 136 °C.
Next, `O=C(C=Cc1cccc2ccccc12)C=Cc1cccc2ccccc12`: 128 °C; `N#CCN(CC#N)c1nc(Cl)nc(Cl)n1`: 154 to 158 °C; `CC(C)(C)OC(=O)NCCCCO/N=C(\C(=O)O)c1csc(NC(c2ccccc2)(c2ccccc2)c2ccccc2)n1`: 120 to 124 °C.
Next, `CC(=O)Nc1ccc(CCCON2CCC(C(=O)c3nc4ccccc4s3)CC2)cc1`: 171 to 172 °C.
`O=P(Oc1ccccc1O)(Oc1ccccc1O)c1ccccc1` gave a melting point of 270 °C.
`S=C1CC(c2ccc(Cl)cc2)Oc2ccccc21` (centres undefined) had a melting point of 116 to 120 °C.
Under `Nc1ccc(-c2cnc(CSCCOc3ccccc3)o2)cc1` stands 110 to 111 °C; under `COC1=CC(=O)c2ccccc2C1=O`, 182 to 183 °C.
Under `COc1cc2ncc(C#N)c(Nc3ccc(F)c(Cl)c3)c2cc1NC(=O)C=CCN1C(C)CCCC1C` (centres undefined) stands 120 to 122 °C.
Next, `CCCCc1nc(Cl)c(C(=O)OCC)n1Cc1ccc2oc(-c3ccccc3NS(=O)(=O)C(F)(F)F)c(Br)c2c1`: 158 to 159 °C; `Cc1ccc(S(=O)(=O)N2CCC[C@H]2C(=O)N[C@@H](CCC(=O)O)C(=O)O)cc1` (Tos-Pro-Glu-OH): 164 to 166 °C.
`CNc1nc2ccc(Cl)cc2c2nc(-c3ccco3)nn12` came in with a melting point of 166 to 168 °C.
`O=c1c2cc(F)c(N3CCCC3)cc2n(-c2ccccc2F)c(=O)n1O` showed a melting point of 235 to 237 °C.
Under `CCC(=O)N(O)C(C)c1ccco1` (centres undefined) stands 74 to 76 °C.
Next, `O=C(NCCO)c1cnc(C(F)(F)F)s1`: 128 to 130 °C.
Under `CC(C)C(C)(C)[Si](C)(C)OC1CCC2(C)C(=CC=C3C4CCC(=O)C4(C)CCC32)C1` (centres undefined) stands 119 to 125 °C; under `N#Cc1cn(CCl)cc1-c1cccc(Cl)c1Cl`, 132 to 133 °C; under `CCCCNC(=O)Oc1ccc(Oc2ccc(C(C)(C)C)cc2)cc1`, 78 to 80 °C.
Consider `CCCC1(CC)Cc2cc(OCC(=O)O)c(Cl)c(Cl)c2C1=O` (centres undefined), for which the melting point turned out to be 126 °C.
Under `COc1cc(C=CC=C2SC(=O)NC2=O)ccc1OCc1csc(-c2ccccc2)n1` stands 248 to 249 °C; under `CCCCOC(=O)C(C)NC(=O)c1cc([N+](=O)[O-])cc([N+](=O)[O-])c1` (centres undefined), 93 to 96 °C.
Under `COc1cc(C)c(C)cc1NC(=S)N1CCN(c2cc(Cl)cc(Cl)c2)CC1` stands 188 to 189 °C; under `COc1cc(Cl)ccc1C(=O)NC1CN(c2ccc(F)cc2)CCn2c1nc(-c1ccncn1)cc2=O` (racemic), 207 to 209 °C.
In turn, `CCOC(=O)Cc1ccc(C(=O)c2ccccc2)cc1N` returned a melting point of 150 to 152 °C.
The compound `Nc1cccc2c1nnn2C1CCCCC1` came in with a melting point of 54 to 60 °C.
As to `COc1cccc(CN2CCN(C)CC2C2=NCCN2)c1OC` (centres undefined), the melting point was in the range of 160 to 162 °C.
Next, `CSc1nc(=O)n(C(C)C)c(=O)[nH]1`: 188 to 190 °C.
